Legend:
CYSLTR1 = target: T1, CYSLTR1 (Homo sapiens, UniProt Q9Y271); assay: NanoBRET screen HiBiT-CYSLTR1 in HEK293; assay type: binding
T1 construct: purchased Promega (in-house HiBiT-GPCR construct library, NanoBRET)
T1 sequence (Q9Y271 1-337): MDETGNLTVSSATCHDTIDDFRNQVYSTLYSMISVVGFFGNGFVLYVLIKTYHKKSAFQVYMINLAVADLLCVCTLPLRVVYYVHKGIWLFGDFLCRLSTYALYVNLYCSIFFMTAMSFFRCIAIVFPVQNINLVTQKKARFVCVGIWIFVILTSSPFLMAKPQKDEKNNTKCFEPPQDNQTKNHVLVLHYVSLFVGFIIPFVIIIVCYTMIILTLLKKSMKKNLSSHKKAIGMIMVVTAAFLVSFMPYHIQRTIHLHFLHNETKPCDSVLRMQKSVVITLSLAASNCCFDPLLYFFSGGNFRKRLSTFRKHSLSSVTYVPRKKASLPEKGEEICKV
Protocol: (§1) Each tracer candidate was screened across the entire library of HiBiT-GPCR constructs using NanoBRET as the detection modality. As depicted in Figure 4A, the specificity of interactions was evaluated through decrease in BRET due to competitive displacement of a bound tracer by excess parental compound. Each tracer was analyzed for binding to each HiBiT-GPCR fusion in the absence and in the presence of competing parental compound. Briefly, HEK293 cells were transfected with HiBiT-GPCR constructs diluted into promoterless DNA to reduce expression and maximize translocation to the cell surface. Each tracer candidate was then screened at concentrations of 1 μM and 0.1 μM across cells expressing these fusions. Cells were treated for 1.5 h with tracer either alone or in the presence of 20 μM competing parental compound (i.e., control). BRET was measured upon addition of purified LgBiT and subsequent complementation with HiBiT genetically fused to a GPCR. The specificity of interactions was assessed through a decrease in BRET signal due to competitive displacement of the bound tracer. To further gauge the robustness of these interactions, the fold response over the control (i.e., BRETtracer/BRETcontrol) was calculated. We chose a 1.5-fold response, which translates to ≥7-fold signal over noise as the minimal threshold required to score an interaction as positive.
(§2) HiBiT-GPCR DNA constructs were diluted in 10 mM Tris pH 8 to a final concentration of 0.01 μg/μL, arrayed in 96-well plates and stored at −20 °C. For transfection, HEK293 cells were suspended in Opti-MEM (without phenol red) supplemented with 2% fetal bovine serum (Seradigm) and 100 units/mL penicillin–streptomycin (Gibco) at a final concentration of 220,000 cells/mL and dispensed into white 96-well plates at 90 μL/well. Subsequent transfections and screens were carried using an Agilent Bravo Automated Liquid Handling Platform. First, the 96-well HiBiT DNA arrays were diluted 25-fold in Opti-MEM (without serum or phenol red) to a final concentration of 0.0004 μg/μL and 20 μL of the diluted DNAs were transferred into new 96-well plates. Next, promoterless carrier DNA (1 μg/μL) was diluted 25-fold (0.04 μg/μL) and then dispensed into the diluted arrays at 20 μL/well. Following brief mixing, Viafect transfection reagent (Promega) diluted 16-fold into Opti-MEM was dispensed into the plates at 40 μL/well. After mixing by pipetting, plates were incubated for 10 min on the pipetting station deck. The DNA-transfection reagent complexes were then added to plates containing cells. To facilitate the screen, 10 μL of DNA-transfection reagent complexes were added in duplicates to the top 4 and bottom 4 rows, resulting in two identical 48-well arrays per plate. Plates with transfected cells were incubated for 18–20 h at 37 °C/5% CO2. A screen of each tracer across the entire library using two different concentrations requires duplicate plates of transfected cells. Depending on the number of tracers being screened, transfections can be scaled up using the same ratios. The next day, for each tracer, four 20× screening solutions in tracer dilution buffer (Promega) were prepared: two duplicates at final concentration of 20 μM and two duplicates at a final concentration of 2 μM. […] The four resulting solutions were diluted 4-fold in Opti-MEM without serum or phenol red to generate 5× solutions (5 µM and 0.5 µM tracer +/− 100 μM competing compound). To screen the library, a BioTek MultiFlo FX liquid dispenser was used to dispense 22.5 µL of tracer solution to the top 4 rows and 22.5 µL tracer + competing compound solution to the 4 bottom rows. Plates were briefly mixed on an orbital shaker and incubated for 1.5 h at room temperature. […] Plates were briefly mixed on an orbital shaker and incubated for 15 min to allow complementation.

ADRA1B = target: T2, ADRA1B (Homo sapiens, UniProt P35368); assay: NanoBRET screen HiBiT-ADRA1B in HEK293; assay type: binding
T2 construct: purchased Promega (in-house HiBiT-GPCR construct library, NanoBRET)
T2 sequence (P35368 1-520): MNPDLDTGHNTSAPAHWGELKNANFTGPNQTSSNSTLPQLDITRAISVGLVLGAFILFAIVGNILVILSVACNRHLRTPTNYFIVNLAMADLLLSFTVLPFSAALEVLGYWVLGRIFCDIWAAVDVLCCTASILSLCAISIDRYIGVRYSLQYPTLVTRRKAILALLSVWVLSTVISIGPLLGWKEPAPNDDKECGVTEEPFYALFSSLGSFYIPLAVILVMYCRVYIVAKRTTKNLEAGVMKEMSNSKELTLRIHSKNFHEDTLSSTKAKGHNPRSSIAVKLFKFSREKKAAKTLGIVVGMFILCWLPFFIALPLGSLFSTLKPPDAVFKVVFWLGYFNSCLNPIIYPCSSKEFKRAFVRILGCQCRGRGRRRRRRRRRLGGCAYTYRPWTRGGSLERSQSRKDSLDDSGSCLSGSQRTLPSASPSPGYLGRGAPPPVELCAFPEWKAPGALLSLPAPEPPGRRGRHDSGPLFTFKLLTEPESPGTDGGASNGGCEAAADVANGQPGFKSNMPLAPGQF
Protocol: as §1, §2

Compound	NanoBRET Fold Response (CYSLTR1; CYSLTR1, tracer 0.1μM)	NanoBRET Fold Response (CYSLTR1; CYSLTR1, tracer 1μM)	NanoBRET Fold Response (ADRA1B; ADRA1B, tracer 0.1μM)	NanoBRET Fold Response (ADRA1B; ADRA1B, tracer 1μM)	other results
COc1ccccc1N1CCN(CCCCN2C(=O)c3ccc(CNC(=O)CCOCCOCCOCCOCCNC(=O)CCc4ccc5n4[B-](F)(F)[N+]4=C(c6ccc[nH]6)C=CC4=C5)cc3C2=O)CC1 [NAN-190-2-NB590]	1.04	1.02	1.80	1.59	–
COc1ccc2[nH]c(-c3ccc(CNC(=O)CCOCCOCCOCCOCCNC(=O)CCc4ccc5n4[B-](F)(F)[N+]4=C(c6ccc[nH]6)C=CC4=C5)cc3)c(CCNC(C)=O)c2n1 [AzomelatoninICO9-2-NB590]	–	–	–	–	NanoBRET Fold Response (CYSLTR1; 0.1μM tracer): 0.86; NanoBRET Fold Response (CYSLTR1; 1μM tracer): 0.91; NanoBRET Fold Response (ADRA1B; 0.1μM tracer): 0.91; NanoBRET Fold Response (ADRA1B; 1μM tracer): 0.97
O=C(CCOCCOCCOCCOCCNC(=O)CCc1ccc2n1[B-](F)(F)[N+]1=C(c3ccc[nH]3)C=CC1=C2)NCCCN1CCN(C2=Nc3cc(Cl)ccc3Nc3ccccc32)CC1 [Clozapine-a-2-NB590]	–	–	–	–	NanoBRET Fold Response (CYSLTR1; CYSLTR1, 0.1μM tracer): 0.98; NanoBRET Fold Response (CYSLTR1; CYSLTR1, 1μM tracer): 1.11; NanoBRET Fold Response (ADRA1B; ADRA1B, 0.1μM tracer): 1.65; NanoBRET Fold Response (ADRA1B; ADRA1B, 1μM tracer): 1.52
CCCn1c(=O)c2[nH]c(-c3ccc(OCC(=O)NCCNC(=O)CCOCCNC(=O)c4ccc(CNC(=O)CCc5ccc6n5[B-](F)(F)[N+]5=C(c7ccc[nH]7)C=CC5=C6)cc4)cc3)nc2n(CCC)c1=O [XAC-3-NB590]	–	1.08	1.05	1.17	–
O=C(CCc1ccc2n1[B-](F)(F)[N+]1=C(c3ccc[nH]3)C=CC1=C2)NCc1ccc(C(=O)NCCOCCOCCNCC(O)COc2cccc3ccccc23)cc1 (stereo not shown) [Propranolol-3-NB590]	–	–	–	–	NanoBRET Fold Response (CYSLTR1; CYSLTR1, 0.1μM): 0.71; NanoBRET Fold Response (ADRA1B; ADRA1B, 0.1μM): 1.14; NanoBRET Fold Response (ADRA1B; ADRA1B, 1μM): 1.10
O=C(CCc1ccc2n1[B-](F)(F)[N+]1=C(c3ccc[nH]3)C=CC1=C2)NCc1ccc(C(=O)NCCOCCC(=O)N[C@@H]2CC[C@@]3(O)[C@H]4Cc5ccc(O)c6c5[C@@]3(CCN4CC3CC3)[C@H]2O6)cc1 [Naltrexone-3-NB590]	0.74	1.09	0.53	0.79	–
N#CN=C(NCCCOc1cccc(CN2CCCCC2)c1)NCCNC(=O)CCOCCOCCOCCOCCNC(=O)CCc1ccc2n1[B-](F)(F)[N+]1=C(c3ccc[nH]3)C=CC1=C2 [Aminopotentidine-2-NB590]	1.05	1.00	1.10	1.01	–
COc1ccc2c(n1)c(CCNC(C)=O)cn2CCNC(=O)CCc1ccc2n1[B-](F)(F)[N+]1=C(c3ccc[nH]3)C=CC1=C2 [Azamelatonin-1-NB590]	–	–	–	–	NanoBRET Fold Response (CYSLTR1; 0.1μM tracer): 0.81; NanoBRET Fold Response (CYSLTR1; 1μM tracer): 1.23; NanoBRET Fold Response (ADRA1B; 0.1μM tracer): 0.97; NanoBRET Fold Response (ADRA1B; 1μM tracer): 0.88
CC(C)N(CC[C@H](c1ccccc1)c1cc(CCNC(=O)c2ccc(CNC(=O)CCc3ccc4n3[B-](F)(F)[N+]3=C(c5ccc[nH]5)C=CC3=C4)cc2)ccc1O)C(C)C [Tolterodine-BZ-NB590]	0.97	0.99	1.17	1.05	–
